Where a name gives a salt, the structure may show the parent alone. Read-outs that look alike come from different tables or passages of the source.
Tests used:
Assay type in all cases: biochemical
[1] = molecular target: T1, recombinant PRL-2 (Homo sapiens, UniProt Q12974); assay: In vitro phosphatase assay (DiFMUP hydrolysis), PRL-2;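 also: PRL-2 activity read as DiFMUP hydrolysis after 20 min at room temperature with drug, enzyme first pre-reduced at 4 °C for 20 min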
T1 construct: 6xHis (N, cleaved yes); made in house; host or cells: E. coli One Shot BL21 Star
T1 sequence (Q12974 1-167): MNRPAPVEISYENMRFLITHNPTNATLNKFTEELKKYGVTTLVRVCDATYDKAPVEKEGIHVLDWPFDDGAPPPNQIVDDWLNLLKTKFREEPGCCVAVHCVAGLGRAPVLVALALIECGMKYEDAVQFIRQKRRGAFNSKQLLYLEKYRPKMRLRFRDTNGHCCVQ

[2] = molecular target: T2, recombinant PRL-3 (Homo sapiens, UniProt O75365); assay: In vitro phosphatase assay (DiFMUP hydrolysis), PRL-3
T2 construct: 6xHis (N, cleaved yes); made in house; host or cells: E. coli One Shot BL21 Star
T2 sequence (O75365 whole entry): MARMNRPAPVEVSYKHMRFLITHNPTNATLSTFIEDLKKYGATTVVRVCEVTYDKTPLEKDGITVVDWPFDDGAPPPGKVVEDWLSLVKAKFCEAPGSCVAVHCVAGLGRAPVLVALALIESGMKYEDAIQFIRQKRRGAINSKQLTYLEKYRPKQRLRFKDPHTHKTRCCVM

[3] = molecular target: T3, recombinant PRL-1 (Homo sapiens, UniProt Q93096); assay: In vitro phosphatase assay (DiFMUP hydrolysis), PRL-1
T3 construct: 6xHis (N, cleaved yes); made in house; host or cells: E. coli One Shot BL21 Star
T3 sequence (Q93096 1-173): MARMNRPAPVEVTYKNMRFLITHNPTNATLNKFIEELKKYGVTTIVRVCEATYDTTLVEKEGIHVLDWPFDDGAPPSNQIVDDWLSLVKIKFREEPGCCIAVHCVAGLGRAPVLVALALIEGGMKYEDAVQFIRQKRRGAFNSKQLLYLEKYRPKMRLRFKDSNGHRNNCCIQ
Protocol: Briefly, protein was diluted in reaction buffer and allowed to incubate at 4 °C for 20 min to allow for full reduction of the active site. DiFMUP, drug, and protein were added, and plates were incubated for 20 min at room temperature. Fluorescence intensities were measured on a Cytation 5 plate reader (Biotek) at an EX:360 nm and EM:460 nm. […] Inhibition selectivity for PRLs over a panel of other phosphatases was determined using PhosphataseProfiler (Eurofins, Cat # PP260).

[4] = FDA-approved drug screen, compared to DMSO

SMILES	% Phosphatase Activity (compared to DMSO) PRL-2 [1, 4]	% Phosphatase Activity (compared to DMSO) PRL-3 [2, 4]	% Phosphatase Activity (compared to DMSO) PRL-1 [3, 4]	further results
C#C[C@]1(O)C=C[C@H]2[C@@H]3CCC4=CC(=O)CC[C@@H]4[C@H]3CC[C@@]21CC [Gestodene]	102%	77%	91%	
Oc1cc(O)c(Cl)cn1 [Gimeracil]	97%	94%	102%	
Cl.O=C(OCC(O)CO)c1ccccc1Nc1ccnc2cc(Cl)ccc12 (stereo not drawn) [Glafenine HCl]	71%	80%	77%	
Cc1ccc(S(=O)(=O)NC(=O)NN2CC3CCCC3C2)cc1 (stereo not drawn) [Gliclazide]	138%	94%	112%	
CCC1=C(C)CN(C(=O)NCCc2ccc(S(=O)(=O)NC(=O)N[C@H]3CC[C@H](C)CC3)cc2)C1=O [Glimepiride]	88%	76%	84%	
Cc1cnc(C(=O)NCCc2ccc(S(=O)(=O)NC(=O)NC3CCCCC3)cc2)cn1 [Glipizide]				% Phosphatase Activity (compared to DMSO) PRL-2 [1]: 98%; % Phosphatase Activity (compared to DMSO) PRL-3 [2]: 75%; % Phosphatase Activity (compared to DMSO) PRL-1 [3]: 97%
COc1ccc2c(c1)C(=O)N(CCc1ccc(S(=O)(=O)NC(=O)NC3CCCCC3)cc1)C(=O)C2(C)C [Gliquidone]	86%	86%	99%	
O=C1O[C@H](CO)[C@@H](O)[C@H](O)[C@H]1O [Gluconolactone]	98%	82%	103%	
N[C@@H](CCC(=O)N[C@@H](CS)C(=O)NCC(=O)O)C(=O)O [Glutathione]				% Phosphatase Activity (compared to DMSO) PRL-2 [1]: 87%; % Phosphatase Activity (compared to DMSO) PRL-3 [2]: 112%; % Phosphatase Activity (compared to DMSO) PRL-1 [3]: 93%
COc1ccc(Cl)cc1C(=O)NCCc1ccc(S(=O)(=O)NC(=O)NC2CCCCC2)cc1 [Glyburide]	100%	77%	104%	
C[N+]1(C)CCC(OC(=O)C(O)(c2ccccc2)C2CCCC2)C1 (stereo not drawn) [Glycopyrrolate]	101%	82%	108%	
CN1C2CCCC1CC(NC(=O)c1nn(C)c3ccccc13)C2 (stereo not drawn) [Granisetron HCl]	74%	93%	86%	
COC1=CC(=O)C[C@@H](C)[C@]12Oc1c(Cl)c(OC)cc(OC)c1C2=O [Griseofulvin]	125%	90%	112%	
COc1ccccc1OCC(O)CO (stereo not drawn) [Guaifenesin]	92%	100%	102%	
N=C(N)N/N=C/c1c(Cl)cccc1Cl [Guanabenz Acetate]	108%	68%	94%	
N=C(N)NC(=O)Cc1c(Cl)cccc1Cl [Guanfacine Hydrochloride]	84%	96%	103%	
Cl.N=C(N)N [Guanidine HCl]	108%	86%	103%	
CCC(=O)O[C@]1(C(=O)CCl)[C@@H](C)C[C@H]2[C@@H]3C[C@H](F)C4=CC(=O)C=C[C@]4(C)[C@@]3(F)[C@@H](O)C[C@@]21C [Halobetasol Propionate]	88%	77%	88%	
O=C(CCCN1CCC(O)(c2ccc(Cl)cc2)CC1)c1ccc(F)cc1 [Haloperidol]	100%	93%	93%	
FC(F)(F)C(Cl)Br (stereo not drawn) [Halothane]	95%	79%	102%	

SMILES	% Phosphatase Activity (compared to DMSO) PRL-2 [1, 4]	% Phosphatase Activity (compared to DMSO) PRL-3 [2, 4]	% Phosphatase Activity (compared to DMSO) PRL-1 [3, 4]	further results
Oc1c(Cl)cc(Cl)c(Cl)c1Cc1c(O)c(Cl)cc(Cl)c1Cl [Hexachlorophene, reference compound]	-9%	-4%	-2.83%	IC50 ([1]; 2.5 µM protein, DiFMUP at KM, read-out: Calculated IC50, PRL-2 phosphatase activity): 35 ± 10 µM; IC50 ([2]; 2.5 µM protein, DiFMUP at KM, read-out: Calculated IC50, PRL-3 phosphatase activity): 13 ± 1 µM; IC50 ([3]; 2.5 µM protein, DiFMUP at KM, read-out: Calculated IC50, PRL-1 phosphatase activity): 31 ± 4 µM
C[N+](C)(C)CCCCCC[N+](C)(C)C [Hexamethonium Bromide]	89%	84%	87%	
CCCCCCc1ccc(O)cc1O [Hexylresorcinol]	83%	84%	90%	
Cl.Cl.NCCc1c[nH]cn1 [Histamine 2HCl]				% Phosphatase Activity (compared to DMSO) PRL-2 [1]: 118%; % Phosphatase Activity (compared to DMSO) PRL-3 [2]: 71%; % Phosphatase Activity (compared to DMSO) PRL-1 [3]: 97%
C[N+]1(C)[C@@H]2CC[C@H]1C[C@@H](OC(=O)C(O)c1ccccc1)C2 (stereo partly drawn) [Homatropine Methylbromide]	100%	95%	107%	
NNc1nncc2ccccc12 [Hydralazine HCl]				% Phosphatase Activity (compared to DMSO) PRL-2 [1]: 85%; % Phosphatase Activity (compared to DMSO) PRL-3 [2]: 87%; % Phosphatase Activity (compared to DMSO) PRL-1 [3]: 102%
NS(=O)(=O)c1cc2c(cc1Cl)NCNS2(=O)=O [Hydrochlorothiazide]	122%	76%	97%	
C[C@]12CCC(=O)C=C1CC[C@@H]1[C@@H]2[C@@H](O)C[C@@]2(C)[C@H]1CC[C@]2(O)C(=O)CO [Hydrocortisone]	91%	79%	102%	
CC[C@H]1CN2CC[C@H]1C[C@@H]2[C@@H](O)c1ccnc2ccc(OC)cc12 [Hydroquinidine]	120%	92%	105%	
Oc1ccc(O)cc1 [Hydroquinone]				% Phosphatase Activity (compared to DMSO) PRL-2 [1]: 91%; % Phosphatase Activity (compared to DMSO) PRL-3 [2]: 70%; % Phosphatase Activity (compared to DMSO) PRL-1 [3]: 90%
CCN(CCO)CCCC(C)Nc1ccnc2cc(Cl)ccc12 (stereo not drawn) [Hydroxychloroquine Sulfate]	100%	100%	96%	
CCCCCC(=O)O[C@]1(C(C)=O)CC[C@H]2[C@@H]3CCC4=CC(=O)CC[C@]4(C)[C@H]3CC[C@@]21C [Hydroxyprogesterone caproate]	84%	73%	91%	
NC(=O)NO [Hydroxyurea]	113%	100%	91%	
CN[C@H]1C[C@@H](N)[C@H](O)[C@@H](O[C@@H]2O[C@H](CO)[C@H](O)[C@@H]3OC4(O[C@H]23)O[C@H]([C@@H](N)CO)[C@H](O)[C@H](O)[C@H]4O)[C@@H]1O (stereo partly drawn) [Hygromycin B]	98%	103%	91%	
C[C@H](Nc1ncnc2nc[nH]c12)c1cc2cccc(Cl)c2c(=O)n1-c1ccccc1 [IPI-145 (INK1197)]	88%	97%	107%	
CCCCCN(C)CCC(O)(P(=O)([O-])O)P(=O)(O)O.[Na+] [Ibandronate sodium]	96%	109%	93%	
CC(C)Cc1ccc(C(C)C(=O)O)cc1 (stereo not drawn) [Ibuprofen]	87%	82%	99%	
CCCCCCCN(CC)CCCC(O)c1ccc(NS(C)(=O)=O)cc1.CCCCCCCN(CC)CCCC(O)c1ccc(NS(C)(=O)=O)cc1.O=C(O)/C=C/C(=O)O (stereo not drawn) [Ibutilide Fumarate]	128%	88%	100%	
COc1cc(C(=O)O)ccc1NC(=O)[C@@H]1N[C@@H](CC(C)(C)C)[C@](C#N)(c2ccc(Cl)cc2F)[C@H]1c1cccc(Cl)c1F [Idasanutlin (RG-7388)]	15%	2%	7%	

Reference: paper PMC8119466, “A screen of FDA-approved drugs identifies inhibitors of protein tyrosine phosphatase 4A3 (PTP4A3 or PRL-3)” (Scientific Reports, 2021)
